Test results reported in patent US20080051319A1, “Inhibiting JNK Signaling Promotes CNS Axon Regeneration” (Children's Medical Center Corporation, priority 2006, published 2008).

System: 4 week-old rat DRGs
Test: in vitro neurite outgrowth assay on immobilized AP-Nogo-66
Type: cell-based
Description: JNK is a member of the mitogen-activated protein kinase (MAP kinase) family which is abundantly expressed in axons and growth cones, and has been implicated in numerous roles including cell stress and cell proliferation. […] Briefly, 4 week-old rat DRGs were dissected, dissociated and plated onto immobilized substrates (AP (100 ng/cm^2) or AP-Nogo-66 (100 ng/cm^2)). Cells were cultured for 24 h before fixation with 4% paraformaldehyde and staining with a neuronal-specific anti-β-tubulin III antibody (Tuj-1, Covance). The average lengths of the longest neurite in individual neurons were measured from at least 150 neurons per condition, from duplicate wells and from three independent experiments, and quantified as described previously. Immunohistochemistry was performed using antibodies against p75 (Chemicon).

In the case of `Oc1c2ccccc2c2c3c(cccc13)N=N2` [SP600125], the “concentrations resulting in an abortion of neurite extension” value is reported as “above 5 μM”.
